Several values for one entry are separate records, joined by “and”; a condition that tells them apart may be missing. Equal entries are not always repeated.
Experiments:
[1] = target: Voltage-gated L-type calcium channel (Rattus norvegicus, UniProt P22002+Q02485+P27732); experiment: Displacement of [3H]nitrendipine from calcium channel receptor; assay type: protein assay
[2] = organism: Mus musculus; experiment: Blocking calcium channels in mice using electrophysiological technique at 10 uM; assay type: functional
[3] = organism: Mus musculus; experiment: Blocking calcium channels in mice using electrophysiological technique at 100 uM; assay type: functional

Row | SMILES | IC50 [1] [nM] | Ki [1] [nM] | Activity [2] | Activity [3] [%]
1 | COc1ccc(C2Sc3ccccc3-n3c(CNc4ccc(F)cc4)ccc32)cc1 (centres undefined) | 5870 | 2200 | – | –
2 | COc1ccc(C2Sc3ccccc3-n3c(CNCCc4ccc(OC)c(OC)c4)ccc32)cc1 (centres undefined) | 534 | 200 | – | –
3 | COc1ccc(C2Sc3ccccc3-n3c(CN(C)C)ccc32)cc1 (centres undefined) | – | – | 20% | 62
4 | COc1ccc([C@@H]2Sc3ccccc3N(CCN(C)C)C(=O)[C@@H]2OC(C)=O)cc1 [DILTIAZEM] | – | – | 24% | 62

Now from value to molecule, other results behind:

Row | IC50 [1] [nM] | Ki [1] [nM] | SMILES | Activity [2] | Activity [3] [%]
5 | 14.8 | 5.55 | CCC(C)NCc1ccc2n1-c1ccccc1SC2c1ccc(OC)cc1OC (centres undefined) | – | –
6 | 150 | 56 | COc1ccc(C2Sc3ccccc3-n3c(CN(C)C)ccc32)c(OC)c1 (centres undefined) | 24% | 74
7 | 315 | 118 | CN(C)Cc1ccc2n1-c1ccccc1SC2c1ccccc1 (centres undefined) | 40% and 65% | –
8 | 53 | 19 | COc1ccc(C2Sc3ccccc3-n3c(CN(C)CCc4ccc(OC)c(OC)c4)ccc32)cc1.Cl (centres undefined) | – | –

Source: ChEMBL document CHEMBL1126342, “Synthesis and preliminary biological evaluation of 1-aminomethyl-4-substituted-4-H-pyrrolo[2,1-C][1,4] benzothiazines, a new class of calcium antagonists” (Bioorg Med Chem Lett, 1992)
